Literature values, collected in PMC8791944, “GLUT3 inhibitor discovery through in silico ligand screening and in vivo validation in eukaryotic expression systems” (Scientific Reports, 2022).

Tested on: GLUT3
Details: read-out: KM of 2-deoxy-glucose for GLUT3; GLUT3 expressed in Xenopus laevis oocytes ref 12; cited from earlier work

O=CC[C@@H](O)[C@H](O)[C@H](O)CO [2-deoxy-glucose, 2-deoxy-D-glucose]
Km: ~1400 µM
